Reference: patent US20250002448A1, “ALLOSTERIC MODULATORS OF NICOTINIC ACETYLCHOLINE RECEPTORS” (MERCK SHARP & DOHME LLC, priority 2021, published 2025)
Where two headings read alike, the source gives them in different places.

Target: T1, human a7 nAChR (Homo sapiens, UniProt P36544)
T1 construct: catalogue number not given
Assay: automated patch-clamp electrophysiology functional assay (Assay A), IonFlux HT
Format: cell-based
Conditions: HEK cell line stably expressing human RIC-3 and human a7, whole-cell population patch, 40 μM acetylcholine
Description: The a7 nAChR positive allosteric modulator (PAM) activity of the present compounds may be tested using assays known in the art. The a7 nAChR PAMs described herein have activities in an automated patch-clamp electrophysiology functional assay as described in the examples. The assay was performed using the lonFlux HT in a whole-cell, population patch configuration. See Golden et al. Assay Drug Dev. Technol. (2011) 9:608-619. The compounds were assessed for their ability to modulate the function of the human a7 nAChR stably expressed in a HEK cell line both in the presence, and in the absence of the natural a7 agonist acetylcholine. By performing a series of such measurements at different concentrations, the effective concentration of the a7 nAChR PAMs (EC50) was determined. See Spencer et al. Assay Drug Dev. Technol. (2012) 10:313-324.
Direct activation of a7 (agonism), and potentiation of acetylcholine-evoked a7 currents was determined as follows:
Automated patch-clamp electrophysiology was performed using the IonFlux HT (Fluxion Biosciences Inc., San Francisco, CA) in the whole-cell, population patch configuration. Test compounds were assessed for their ability to modulate the function of the a7 nicotinic acetylcholine receptor both in the presence, and in the absence of the natural a7 agonist acetylcholine. A HEK cell line stably expressing both human RIC-3 and human a7 (PrecisION hnAChR a7/RIC-3. Eurofins Pharma, St. Charles, MO) was cultured in 175 cm^2 triple-layer tissue culture flasks to no more than 90% confluency in DMEM/F-12 growth media supplemented with 10% heat-inactivated fetal bovine serum, 1% non-essential amino acids. 0.625 μg/mL Puromycin, and 400 μg/mL Geneticin. Immediately prior to assay, cells were detached by first aspirating growth media, rinsing with Dulbecco's phosphate buffered saline, and then adding 10 mL of Accutase (Innovative Cell Technologies, San Diego, CA) to the flask and then incubating at 37° C. for 5 minutes. Detached cells were then recovered by the addition of 40 mL of CHO-serum-free media supplemented with 25 mM HEPES, and rocked gently in a 50 ml conical tube for 20 minutes prior to patch-clamp assay. After recovery, cells were pelleted by centrifugation at 1.000 RPM for 1 minute in a compact bench top centrifuge: recovery media was aspirated and cells were resuspended in external recording solution (150 mM NaCl, 5 mM KCl, 2 mM CaCl2), 1 mM MgCl2, 10 mM HEPES, 12 mM dextrose) to a density of 5.0×10^6 cells/mL. The cell suspension was added to the cell inlet wells on an IonFlux HT population patch plate which had previously been rinsed and primed with deionized H2O. Test compounds were serially diluted in DMSO and then resuspended to the final test concentration in external recording solution, with, or without 40 μM acetylcholine added to the external recording solution: test compounds were then transferred to the IonFlux HT population patch plate. Internal recording solution (110 mM TrisPO4, 28 mM TrisBase, 0.1 mM CaCl2), 2 mM MgCl2, 11 mM EGTA, 4 mM MgATP) was added to the internal recording solution inlet wells on the IonFlux HT patch plate previously loaded with cells and test compounds, and the plate loaded into the lonFlux HT instrument. A protocol was executed on the IonFlux HT to trap the cells, break into the cells, and establish the whole-cell recording configuration: cells were voltage-clamped at a holding potential of −60 mV for the duration of the experiment, all experiments were conducted at room temperature, and the IonFlux HT injection pressure was 8 psi for solution applications. Upon establishing the whole-cell configuration, external recording solution was perfused into the recording chambers for 120 seconds and then 40 μM acetylcholine was applied for 1 second and immediately washed off with external recording solution for 60 seconds. […]

T1 sequence (P36544 23-502): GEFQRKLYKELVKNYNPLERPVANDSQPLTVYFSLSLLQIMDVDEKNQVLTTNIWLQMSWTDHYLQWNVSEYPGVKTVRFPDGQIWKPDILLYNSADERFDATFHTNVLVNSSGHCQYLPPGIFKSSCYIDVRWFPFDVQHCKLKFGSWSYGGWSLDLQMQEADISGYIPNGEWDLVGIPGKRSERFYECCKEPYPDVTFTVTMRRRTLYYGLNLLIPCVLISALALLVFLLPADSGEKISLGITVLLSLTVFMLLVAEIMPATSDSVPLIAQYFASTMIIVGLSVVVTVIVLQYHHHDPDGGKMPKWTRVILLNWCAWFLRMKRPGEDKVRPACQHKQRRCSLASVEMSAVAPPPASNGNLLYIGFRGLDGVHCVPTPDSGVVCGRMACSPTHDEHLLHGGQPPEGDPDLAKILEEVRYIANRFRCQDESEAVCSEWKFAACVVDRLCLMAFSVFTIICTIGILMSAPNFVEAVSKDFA

EC50 (read-out: α7 nAChR Potency) [nM]	EC50 (read-out: a7 nAChR EC50) [nM]	Compound
500 to 5000	–	CCOc1ccc([C@H](COC)NC(=O)C2CC23COc2ccc(F)cc23)cc1 (stereo in doubt) [Example A10, cis-N-[(1R)-1-(4-Ethoxyphenyl)-2-methoxyethyl]-5-fluoro-2H-spiro[I-benzofuran-3,1′-cyclopropane]-2′-carboxamide]
500 to 5000	740	CCOc1ccc([C@H](COC)NC(=O)C2CC23CCCc2ccccc23)cc1 (single isomer, unassigned) [Example B1]
500 to 5000	1100	O=C(NC1(c2ccc(F)cc2)COC1)C1CC12COc1ccccc12 (centres unmarked) [Example A9, N-[3-(4-Fluorophenyl)oxetan-3-yl]-2H-spiro[1-benzofuran-3,1′-cyclopropane]-2′-carboxamide]
500 to 5000	630	O=C(N[C@@H](CO)C1CCCCC1)C1CC12COc1ccccc12 (some centres unmarked) [Example A8]
500 to 5000	–	O=C(N[C@@H](C(F)F)C1CCCCC1)C1CC12CCc1ccc(F)cc12 (stereo partly drawn) [Example A7, N-[(1R)-1-Cyclohexyl-2,2-difluoroethyl]-6′-fluoro-2′, 3′-dihydrospiro[cyclopropane-1,1′-indene]-2-carboxamide]
500 to 5000	3000	CCOc1ccc([C@@H](NC(=O)C2CC23COc2ccc(F)cc23)C(F)F)cn1 (stereo in doubt) [Example A12, cis-N-[(1R)-1-(6-Ethoxypyridin-3-yl)-2,2-difluoroethyl]-5-fluoro-2H-spiro[1-benzofuran-3,1′-cyclopropane]-2′-carboxamide]
500 to 5000	770	O=C(N[C@@H](CO)C1CCCCC1)C1CC12COc1ccc(F)cc12 (stereo in doubt) [Example A15, cis-N-[ (1R)-1-Cyclohexyl-2-hydroxyethyl]-5-fluoro-2H-spiro[1-benzofuran-3,1′-cyclopropane]-2′-carboxamide]
500 to 5000	–	O=C(N[C@@H](C(F)F)C1CCCCC1)C1CC12COc1ccc(F)cc12 (stereo in doubt) [Example A14, cis-N-[(1R)-1-Cyclohexyl-2,2-difluoroethyl]-5-fluoro-2H-spiro[1-benzofuran-3,1′-cyclopropane]-2′-carboxamide]
500 to 5000	790	CCOc1ccc([C@H](CF)NC(=O)C2CC23COc2ccc(F)cc23)cn1 (stereo in doubt) [Example A13, cis-N-[(1R)-1-(6-Ethoxypyridin-3-yl)-2-fluoroethyl]-5-fluoro-2H-spiro[1-benzofuran-3,1′-cyclopropane]-2′-carboxamide]
500 to 5000	2300	COc1cc(C2(NC(=O)C3CC34COc3ccc(F)cc34)CC2)ccn1 (stereo not drawn) [Example A17, cis-S-Fluoro-N-[1-(2-methoxypyridin-4-vl)cyclopropyl]-2H-spiro[1-benzofuran-3,1′-cyclopropane]-2′-carboxamide]
500 to 5000	–	COc1ccc(C2(NC(=O)[C@@H]3C[C@]34COc3ccc(F)cc34)CC2)cn1 (relative stereo) [Example A16, cis-5-Fluoro-N-[1-(6-methoxypyridin-3-yl)cyclopropyl]-2H-spiro[1-benzofuran-3,1′-cyclopropane]-2′-carboxamide]
5000 to 50000	5800	CCOc1ccc(C(CO)NC(=O)C2CC23COc2ccc(F)cc23)cn1 [Example A11, cis-N-[ (1R)-1-(6-Ethoxypyridin-3-yl)-2-hydroxyethyl]-5-fluoro-2H-spiro[1-benzofuran-3,1′-cyclopropane]-2′-carboxamide]

Further lines, the compound ahead of its results:

Compound	EC50 (read-out: α7 nAChR Potency) [nM]	EC50 (read-out: a7 nAChR EC50) [nM]
O=C(NC1(c2ccc(F)cc2)COC1)C1CC12CCc1ccc(F)cc12 (centres unmarked) [Example A6]	500 to 5000	–
O=C(NC1(c2ccc(F)cc2)COC1)C1CC12CCc1ccccc12 (racemic) [Example A1, N-[3-(4-Fluorophenyl)oxetan-3-yl]-2′, 3′-dihydrospiro[cyclopropane-1,1′-indene]-2-carboxamide]	500 to 5000	3200
CCOc1ccc([C@H](CO)NC(=O)C2CC23CCc2ccc(F)cc23)cn1 (stereo partly drawn) [Example A5, N-[(1R)-1-(6-Ethoxypyridin-3-yl)-2-hydroxyethyl]-6′-fluoro-2′, 3′-dihydrospiro[cyclopropane-1,1′-indene]-2-carboxamide]	500 to 5000	1400
CCOc1ccc([C@H](COC)NC(=O)C2CC23COc2ccc(F)cc23)cc1 (single isomer, unassigned; diastereomer d) [Example 5]	100 to 500	480
CCOc1ccc([C@H](COC)NC(=O)[C@@H]2C[C@]23CCc2ccccc23)cc1 [Example 3, (1R,2R)-N-[ (1R)-1-(4-Ethoxyphenyl)-2-Methoxy-Ethyl]-2′,3′-Dihydrospiro[Cyclopropane-1,1′-Indene]-2-Carboxamide]	500 to 5000	690
CCOc1ccc([C@H](COC)NC(=O)C2CC23CCc2ccc(F)cc23)cc1 (single isomer, unassigned) [Example A2]	500 to 5000	1600
CCOc1ccc([C@H](COC)NC(=O)C2CC23CCc2ccccc23)cc1 (mixture of isomers) [Example 2, N-[(1R)-1-(4-Ethoxyphenyl)-2-Methoxy-Ethyl]-2′,3′-Dihydrospiro[Cyclopropane-1,1′-Indene]-2-Carboxamide, Mixture B]	100 to 500	420
O=C(N[C@@H](CO)C1CCCCC1)C1CC12CCc1ccc(F)cc12 (stereo partly drawn) [Example A4, N-[(1R)-1-Cyclohexyl-2-hydroxyethyl]-6′-fluoro-2′, 3′-dihydrospiro[cyclopropane-1,1′-indene]-2-carboxamide]	500 to 5000	1200
CCOc1ccc([C@H](COC)NC(=O)C2CC23CCc2cc(F)ccc23)cc1 (single isomer, unassigned; diastereomer b) [Example 4]	500 to 5000	590
CCOc1ccc([C@H](COC)NC(=O)C2CC23CCc2ccccc23)cc1 (mixture of isomers) [Example 1, N-[(1R)-1-(4-Ethoxyphenyl)-2-Methoxy-Ethyl[-2′,3′-Dihydrospiro]Cyclopropane-1,1′-Indene]-2-Carboxamide, Mixture a]	500 to 5000	4500
CCOc1ccc([C@H](COC)NC(=O)C2CC23CCc2ccc(F)cc23)cc1 (single isomer, unassigned) [Example A3]	500 to 5000	700
